Marks after values point to notes of the source that are not given here.
conditions: pH 2.3

Log P | Structure (SMILES)
3.59 | CCOC(=O)C(C#N)=C(NC[Si](C)(C)C)c1cccnc1Cl [Compound 1085]
3.94 | CCOC(=O)C(C#N)=C(Nc1ccccc1SC)c1cc(Cl)cnc1Cl [Compound 346]
4.39 | CCOC(=O)C(C#N)=C(NC(C)C(C)C)c1cccnc1-c1ccc(OC(F)(F)F)cc1 (stereo not drawn) [Compound 1586]
3.01^[c]; 3.01^[b] | CCOC(=O)C(C#N)=C(Nc1ccn(C)c1SC)c1cccnc1Cl [Compound 1592]

same assay, conditions: pH 2.7

Log P | Structure (SMILES)
2.01^[a] | CCOC(=O)C(C#N)=C(NC(C)C(N)=O)c1ncc(Cl)cc1Cl (stereo not drawn) [Compound 699]
2.75^[a] | CCOC(=O)C(C#N)=C(NC(C)c1ccccn1)c1cn(C)nc1C(F)(F)F (racemic) [Compound 140]
3.06^[a] | COC(=O)C(C#N)=C(NCc1nc(C(F)(F)F)cs1)c1sc(C)nc1C(F)(F)F [Compound 185]
3^[a] | CCOC(=O)C(C#N)=C(NC1CCCc2cccnc21)c1cccnc1Cl (stereo not drawn) [Compound 1605]
4.4^[a] | CCOC(=O)C(C#N)=C(NC(C)c1cccc2ccccc12)c1cnc(Cl)cc1Cl (stereo not drawn) [Compound 3]
3.73^[a] | C=CCCCC(C=C)NC(=C(C#N)C(=O)OCC)c1cn(C)nc1C(F)F (racemic) [Compound 1016]
1.8^[a] | CCOC(=O)C(C#N)=C(NC(C)C(=O)NC)c1ccnc2ccccc12 (stereo not drawn) [Compound 1503]
2.94^[a] | CCOC(=O)C(C#N)=C(NC(C)C(=O)OC)c1sc(C)nc1C(F)(F)F (stereo not drawn) [Compound 680]
3.9^[a] | COC(=O)C(C#N)=C(NC(C)CC(C)C)c1sc(C)nc1C(F)(F)F (racemic) [Compound 782]
4.25^[a] | CCOC(=O)C(C#N)=C(NC(c1cc2ccccc2s1)C(F)(F)F)c1c(C)nn(C)c1F (racemic) [Compound 51]
2.5^[a] | CCNC(=O)C(C#N)=C(NC(C)c1ccccn1)c1ccnc(Cl)c1F (stereo not drawn) [Compound 1329]
3.31^[a] | CCOC(=O)C(C#N)=C(NC(C)C(C)C)c1ccnc(C)c1F (stereo not drawn) [Compound 1317]
1.3^[a] | CNN(C)C(=O)C(C#N)=C(NC(C)C(C)C)c1cccnc1Cl (stereo not drawn) [Compound 1628]
3.96^[a] | CCOC(=O)C(C#N)=C(NC(C)C(C)C)c1ccnc(Br)c1Br (stereo not drawn) [Compound 1410]
2.57^[a] | CCOC(=O)C(C#N)=C(NC(C)c1nccs1)c1ccnc(C)c1Cl (stereo not drawn) [Compound 1285]
3.29^[a] | CCOC(=O)C(C#N)=C(NC(C)C(C)C)c1ccnc2ccccc12 (stereo not drawn) [Compound 1496]
0.82^[a] | COC(=O)C(C#N)=C(NC(C)CN(C)C)c1cn(C)nc1C(F)F (racemic) [Compound 587]
3.35^[a] | CCOC(=O)C(C#N)=C(NC[Si](C)(C)C)c1cn(C)nc1C(F)F [Compound 1126]
1.8^[a] | CCOC(=O)C(C#N)=C(NC(C)C(N)=O)c1cnccc1C(F)(F)F (stereo not drawn) [Compound 727]
3.37^[a] | CCOC(=O)C(C#N)=C(NC(C)COc1ccccc1)c1cn(C)nc1C(F)F (stereo not drawn) [Compound 738]
2.98^[a] | COC(=O)C(C#N)=C(NC(C)(C)c1ccc(F)cc1)c1cccnc1Cl [Compound 399]
3.12^[a] | CCOC(=O)C(C#N)=C(NC(C)c1ccccn1)c1c(C(F)(F)F)nn(C)c1F (mixture of isomers) [Compound 310]
4.36^[a] | C=CC(COCc1ccccc1)NC(=C(C#N)C(=O)OCC)c1sccc1C(F)(F)F (stereo not drawn) [Compound 688]
3.6^[a] | CC(C)C(C)NC(=C(C#N)C(=O)N1CCSC1C)c1cccnc1Cl (stereo not drawn) [Compound 1615]
3.02^[a] | CCOC(=O)C(C#N)=C(NC(C)c1nccs1)c1nc(Cl)ccc1Cl (stereo not drawn) [Compound 208]
3.76^[a] | CCOC(=O)C(C#N)=C(Nc1ccc(C(C)C)cc1)c1cn(C)nc1C(F)F [Compound 497]
2.61^[a] | COC(=O)C(C#N)=C(NC1(c2ccccc2Cl)CC1)c1cccnc1Cl [Compound 382]

Log P | Structure (SMILES)
3.62^[a] | CCOC(=O)C(C#N)=C(NC(C)C1CCCO1)c1ccnc(C(F)(F)F)c1Cl (stereo not drawn) [Compound 1624]
3.89^[a] | CCOC(=O)C(C#N)=C(NC(CC(C)C)C(=O)OCC)c1cccnc1Cl (stereo not drawn) [Compound 1196]
4.01^[a] | COC(=O)C(C#N)=C(NC(C)c1ccc(C)cc1)c1sc(C)nc1C(F)(F)F (mixture of isomers) [Compound 443]
3.78^[a] | CCOC(=O)C(C#N)=C(NC(c1ccc(N(C)C)cc1)C(F)(F)F)c1cn(C)nc1C(F)F (racemic) [Compound 556]
2.07^[a] | CCOC(=O)C(C#N)=C(NC(C(N)=O)C(C)C)c1cccnc1Cl (stereo not drawn) [Compound 732]
3.21^[a] | CCOC(=O)C(C#N)=C(NC1CCCC1OCC)c1cn(C)nc1C(F)F (stereo not drawn) [Compound 1353]
2.62^[a] | C=CCOC(=O)C(C#N)=C(NC(C)c1nccs1)c1cccnc1Cl (stereo not drawn) [Compound 1490]
3.78^[a] | CCOC(=O)C(C#N)=C(NC1CCC1)c1ccnc(C(F)(F)F)c1Cl [Compound 1621]
3.63^[a] | CCOC(=O)C(C#N)=C(NC(C)CC)c1cc(C)oc1C (stereo not drawn) [Compound 825]
4.14^[a] | CCOC(=O)C(C#N)=C(NC1(c2c(F)cccc2F)CC1)c1sc(Cl)nc1Cl [Compound 528]
3.42^[a] | CCOC(=O)C(C#N)=C(Nc1ccccc1SC)c1c(C)nn(C)c1Cl [Compound 410]
3.61^[a] | CCOC(=O)C(C#N)=C(NC(C)C1CC1)c1sc(C)nc1C(F)(F)F (stereo not drawn) [Compound 886]
4.13^[a] | CCOC(=O)C(C#N)=C(NC(C)c1cc(Cl)ccc1Cl)c1cccnc1Cl (racemic) [Compound 1558]
1.22^[a] | CCOC(=O)C(C#N)=C(NC(CC)CN(C)C)c1cn(C)nc1C(F)F (stereo not drawn) [Compound 1334]
1.96^[a] | COCCNC(=O)C(C#N)=C(NC(C)c1nccs1)c1cn(C)nc1C(F)F (racemic) [Compound 1287]
3.02^[a] | CCOC(=O)C(C#N)=C(NC1(c2c(F)cccc2F)CC1)c1cn(C)nc1OC [Compound 508]
2.7^[a] | CCOC(=O)C(C#N)=C(NC(C)c1ccccn1)c1cn(C)nc1C(Cl)Cl (racemic) [Compound 1565]
2.94^[a] | CCOC(=O)C(C#N)=C(NC(C(=O)OC)c1ccccc1)c1cn(C)nc1C(F)F (stereo not drawn) [Compound 1140]
3.63^[a] | CCOC(=O)C(C#N)=C(NCc1csc(-c2ccccc2)n1)c1cccnc1Cl [Compound 319]
3.55^[a] | CCOC(=O)C(C#N)=C(Nc1ccc(OC)cc1)c1sccc1Br [Compound 488]
3.27^[a] | COC(=O)C(C#N)=C(NC(C)(C)CSC)c1sc(C)nc1C(F)(F)F [Compound 702]
3.8^[a] | CCOC(=O)C(C#N)=C(NC(C)(C)CSC)c1sccc1C(F)(F)F [Compound 700]
3.25^[a] | CCOC(=O)C(C#N)=C(Nc1ccccc1C(O)(C(F)(F)F)C(F)(F)F)c1cn(C)nc1C(F)F [Compound 1427]
2.54^[a] | C#CC(C)(C)NC(=C(C#N)C(=O)OCC)c1cn(C)nc1C=C [Compound 1035]
3.31^[a] | CCOC(=O)C(C#N)=C(NC1CCC(OCC)CC1)c1cccnc1Cl (stereo not drawn) [Compound 1370]
3.73^[a] | COC(=O)C(C#N)=C(NC1CC(C)CCC1C)c1cccnc1Cl (stereo not drawn) [Compound 1057]
3.73^[a] | CCOC(=O)C(C#N)=C(NC(C)(C)CSC)c1sccc1Br [Compound 701]

Structure (SMILES) | Log P
CCOC(=O)C(C#N)=C(NC1CC1)c1cn(C)nc1C(F)F [Compound 1124] | 2.35^[a]
CCOC(=O)C(C#N)=C(NC(C)C(C)C)c1cn(C)nc1C(F)F (stereo not drawn) [Compound 1003] | 3.15^[a]
CCOC(=O)C(C#N)=C(NC(C)C1CC1)c1ccncc1F (racemic) [Compound 904] | 2.8^[a]
CCOC(=O)C(C#N)=C(NC(C)c1ccccn1)c1cn(C)nc1I (racemic) [Compound 1248] | 2.37^[a]
CCOC(=O)C(C#N)=C(NC(C)c1cscn1)c1cccnc1Cl (racemic) [Compound 275] | 2.4^[a]
CCOC(=O)C(C#N)=C(NC(C)C(=O)OCC)c1cccnc1Cl (stereo not drawn) [Compound 1194] | 2.82^[a]
CC(C)NC(=O)C(C#N)=C(NC(C)c1nccs1)c1sccc1Br (stereo not drawn) [Compound 214] | 3.11^[a]
CCOC(=O)C(C#N)=C(NC(C)c1ncccc1SC)c1cccnc1Cl (stereo not drawn) [Compound 1448] | 3.1^[a]
CCOC(=O)C(C#N)=C(NC(C)C1CCC1)c1cn(C)nc1C(F)F (stereo not drawn) [Compound 1133] | 3.33^[a]
CCOC(=O)C(C#N)=C(Nc1ccccc1Cl)c1cccnc1Cl [Compound 1263] | 3.35^[a]
C=CCNC(=O)C(C#N)=C(NC(C)c1nccs1)c1cn(C)nc1C(F)F (racemic) [Compound 1292] | 2.2^[a]
CCOC(=O)C(C#N)=C(NC1CC1C(F)(F)F)c1cccnc1Cl (stereo not drawn) [Compound 1054] | 2.9^[a]
C#CCNC(=O)C(C#N)=C(NC(C)c1nccs1)c1cccnc1Cl (stereo not drawn) [Compound 317] | 2.03^[a]
CCOC(=O)C(C#N)=C(NC(C)C(=O)NC)c1cc(Cl)sc1Cl (stereo not drawn) [Compound 1632] | 2.46^[a]
CCOC(=O)C(C#N)=C(NC(C)COc1cccc(OC)c1)c1cn(C)nc1C(F)F (stereo not drawn) [Compound 742] | 3.35^[a]
CCOC(=O)C(C#N)=C(NCCC(C)C)c1cccnc1Cl [Compound 1185] | 3.44^[a]
CCOC(=O)C(C#N)=C(NC(C)C(C)C)c1cn(C)nc1C (stereo not drawn) [Compound 1203] | 2.8^[a]
CCOC(=O)C(C#N)=C(NC(c1ccc(Cl)cc1)C(F)(F)F)c1cn(C)nc1C(F)F (stereo not drawn) [Compound 1222] | 4.01^[a]

same assay, conditions: pH 7.5

Log P | Structure (SMILES)
2.17 | COC(=O)C(C#N)=C(NC(C)c1sc(C)nc1C)c1cccnc1Cl (stereo not drawn) [Compound 26]
3.46 | CCOC(=O)C(C#N)=C(NC[Si](C)(C)C)c1cccnc1Cl [Compound 1085]
3.7 | CCOC(=O)C(C#N)=C(Nc1ccccc1SC)c1cc(Cl)cnc1Cl [Compound 346]
3.14 | COC(=O)C(NC(=C(C#N)C(=O)OCC(F)(F)F)c1cccnc1Cl)C(C)C (stereo not drawn) [Compound 581]
4.41 | CCOC(=O)C(C#N)=C(NC(C)C(C)C)c1cccnc1-c1ccc(OC(F)(F)F)cc1 (stereo not drawn) [Compound 1586]
1.18 | COC(=O)C(C#N)=C(NC(C)C(N)=O)c1cccnc1Cl (stereo not drawn) [Compound 563]
3.76 | CCOC(=O)C(C#N)=C(NC(C)Cc1ncc(C(F)(F)F)cc1Cl)c1cccnc1Cl (racemic) [Compound 49]
3.01^[c]; 3.01^[b] | CCOC(=O)C(C#N)=C(Nc1ccn(C)c1SC)c1cccnc1Cl [Compound 1592]

From patent US8476197B2, “Aminopropenoates as fungicides” (priority 2009, dated 2013)
